In patent US5698516A, “Biologically active vasopressin analogues” (Ferring B.V., priority 1993, dated 1997):
Like-named read-outs stand apart in the source and are kept apart here. Numbered stars: 1 amine (or outer) side, 2 acyl side, 3 side chain; on linkers, the order of the positions; unused ones are H or OH. Bridge positions count the residues as written; N and C are the ends. Square brackets hold non-standard residues; d marks the D form. Peptide text beside a SMILES is read from it. Hyp = O=C(O)[C@@H]1C[C@@H](O)CN1; 2Thi = N[C@@H](Cc1cccs1)C(=O)O; d2Thi = N[C@H](Cc1cccs1)C(=O)O; Iva = CC[C@](C)(N)C(=O)O; X1 = O=C(CCC[*:2])[*:1]

Tests used:
[1] = test system: rat; test: Antidiuretic activity (ADiv), rat model, urine conductivity after intravenous challenge; assay type: in vivo; conditions: conductivity of urine
Procedure: a) Antidiuretic activity (ADiv)
The antidiuretic activity of the peptides was determined in the well established rat model which is based on continuous measurement of the conductivity of the urine produced by the rat after an intravenous challenge with peptide (J. Medicinal Chem. (1978), 21, 352-356).

[2] = rat, in vivo
Procedure: (§1) b) Gastrointestinal absorption of peptides [(FAD)V ]
(§2) Absorption of peptides administered in the intestine through a surgically introduced plastic tube (10 cm distal of pylorus) was determined by comparing the antidiuretic effect (area under curve) after intestinal administration with the antidiuretic effect after intravenous adminstration.

[3] = rat, in vivo; remark: listed apart in the source
Procedure: (§3) c) Intranasal absorption of peptides (FAD)in
(§4) Absorption of peptides administered in a volume of 30 μl in the nasal cavity through a PE20 cannula attached to a Hamilton syringe (introduced 10 mm without surgery), was determined by comparing the antidiuretic effect (area under curve) after intranasal administration with the antidiuretic effect after intravenous administration.

[4] = in vivo; cited from earlier work
[5] = Gastrointestinal absorption of peptides (FAD)V, intestinal vs intravenous antidiuretic effect; conditions: rat, intestinal administration via tube 10 cm distal of pylorus; antidiuretic effect AUC vs intravenous
Procedure: as §1, §2

[6] = Intranasal absorption of peptides (FAD)in, intranasal vs intravenous antidiuretic effect; conditions: rat, 30 μl in nasal cavity; antidiuretic effect AUC vs intravenous
Procedure: as §3, §4

Structure (SMILES)	ADiv (antidiuretic activity) [1]	(FAD)V (gastrointestinal absorption) [2]	(FAD)in (intranasal absorption) [3]	decrease of bioavailability by intranasal route [4]	(FAD)V (gastrointestinal absorption) [5]	(FAD)in (intranasal absorption) [6]
NC(=O)CC[C@@H]1NC(=O)[C@H](Cc2ccccc2)NC(=O)[C@H](Cc2ccc(O)cc2)NC(=O)CCSSC[C@@H](C(=O)N2CCC[C@H]2C(=O)N[C@H](CCCN=C(N)N)C(=O)NCC(N)=O)NC(=O)[C@H](CC(N)=O)NC1=O [DDAVP, 1-desamino-8-D-arginine vasopressin]	1100 IU/μmol	0.09%	8%	about 10 times		
CC[C@]1(C)NC(=O)[C@H](Cc2cccs2)NC(=O)[C@@H](Cc2ccccc2)NC(=O)CCCSC[C@@H](C(=O)N2C[C@H](O)C[C@H]2C(=O)N[C@H](CCCNC(=N)N)C(=O)NCC(N)=O)NC(=O)[C@H](CC(N)=O)NC1=O [Ex. 1] ([dF][2Thi][Iva]NC[Hyp][dR]G-NH2; linker N-5 via X1)					1.3%	42%
CC(C)[C@@H]1NC(=O)[C@H](Cc2cccs2)NC(=O)[C@@H](Cc2ccccc2)NC(=O)CCCSC[C@@H](C(=O)N2C[C@H](O)C[C@H]2C(=O)N[C@H](CCCNC(=N)N)C(=O)NCC(N)=O)NC(=O)[C@H](CC(N)=O)NC1=O [Ex. 2] ([dF][2Thi]VNC[Hyp][dR]G-NH2; linker N-5 via X1)					1.2%	20%
CC(C)[C@@H]1NC(=O)[C@H](Cc2ccccc2)NC(=O)[C@@H](Cc2ccc(O)cc2)NC(=O)CCCSC[C@@H](C(=O)N2CCC[C@H]2C(=O)N[C@H](CCCNC(=N)N)C(=O)NCC(N)=O)NC(=O)[C@H](CC(N)=O)NC1=O [Ex. 3, reference compound] ([dY]FVNCP[dR]G-NH2; linker N-5 via X1)					0.4%	5%
CC[C@]1(C)NC(=O)[C@H](Cc2cccs2)NC(=O)[C@@H](Cc2cccs2)NC(=O)CCCSC[C@@H](C(=O)N2C[C@H](O)C[C@H]2C(=O)N[C@H](CCCNC(=N)N)C(=O)NCC(N)=O)NC(=O)[C@H](CC(N)=O)NC1=O [Ex. 4] ([d2Thi][2Thi][Iva]NC[Hyp][dR]G-NH2; linker N-5 via X1)					2.5%	22%
CC[C@]1(C)NC(=O)[C@H](Cc2cccs2)NC(=O)[C@@H](Cc2ccc(O)cc2)NC(=O)CCCSC[C@@H](C(=O)N2C[C@H](O)C[C@H]2C(=O)N[C@H](CCCNC(=N)N)C(=O)NCC(N)=O)NC(=O)[C@H](CC(N)=O)NC1=O [Ex. 5] ([dY][2Thi][Iva]NC[Hyp][dR]G-NH2; linker N-5 via X1)					1.4%	17%
CSCC[C@@H]1NC(=O)[C@@H](Cc2cccs2)NC(=O)CCCSC[C@@H](C(=O)N2C[C@H](O)C[C@H]2C(=O)N[C@H](CCCNC(=N)N)C(=O)NCC(N)=O)NC(=O)[C@H](CC(N)=O)NC(=O)[C@H](C(C)C)NC1=O [Ex. 6] ([d2Thi]MVNC[Hyp][dR]G-NH2; linker N-5 via X1)					1.6%	22%
